# Reference: patent US12134664B2, “Muramyl peptide derivatives” (Bharat Biotech International Limited, priority 2015, dated 2024)
# B1: OVA: Ovalbumin (OVA) antigen, given alone (protein, UniProt P01012 2-386, looked up)
# Ovalbumin: GSIGAASMEFCFDVFKELKVHHANENIFYCPIAIMSALAMVYLGAKDSTRTQINKVVRFDKLPGFGDSIEAQCGTSVNVHSSLRDILNQITKPNDVYSFSLASRLYAEERYPILPEYLQCVKELYRGGLEPINFQTAADQARELINSWVESQTNGIIRNVLQPSSVDSQTAMVLVNAIVFKGLWEKAFKDEDTQAMPFRVTEQESKPVQMMYQIGLFRVASMASEKMKILELPFASGTMSMLVLLPDEVSGLEQLESIINFEKLTEWTSSNVMEERKIKVYLPRMKMEEKYNLTSVLMAMGITDVFSSSANLSGISSAESLKISQAVHAAHAEINEAGREVVGSAEAGVDAASVSEEFRADHPFLFCIKHIATNAVLFFGRCVSP
# Legend:
# [1] = test system: HBsAg specific IgG antibody; test: Endpoint titer of HBsAg specific total IgG by ELISA after immunization; format: in vivo, BALB/c mice; settings: for HBsAg specific IgG antibody endpoint titer: i.m. Day 0 & 28, Day 42 sera
# Protocol: Female BALB/c mice (6-8 week old, n=6/group) were vaccinated intramuscularly (i.m, at two quadriceps) on Day 0 & Day 28 with vehicle control or Hepatitis B antigen (20 μg/mouse/dose/100 μl, 50 μl per quadricep) with and without MDP-ET (10 μg or 50 μg/mouse/dose/100 μl) diluted in Phosphate buffered saline. Prior to immunization, Hepatitis B surface antigen was mixed with MDP-ET, by gentle agitation (1:1 ratio), under sterile conditions. Mice were bled and euthanized on Day 42. Blood was collected & serum was isolated to evaluate analyze antigen specific total IgG antibody titer (as in example 3.1.2) and antibody subclasses (isotypes namely IgG1 or IgG2a or IgG3, as in example 3.1.3).
# Serial dilutions of individual serum samples ([…] ranging from 1:50 to 819200) were used to determine the endpoint titer of antigen specific total IgG antibody titer by ELISA. Details of assay protocol as described below, For analysis of antigen specific antibody titer, hepatitis B surface antigen was suspended in 50 mM carbonate bicarbonate buffer, pH 9.6 and coated at a concentration (lug/ml, 100 μl/well) in 96 well plates and kept at 4° C. for overnight. Next day, plates were washed with washing buffer (PBST-Phosphate buffered saline, pH 7.4 with 0.05% Tween) and blocked with blocking buffer (PBS with 1% BSA) at RT for 1-2 hr. ELISA plates were washed again with wash buffer (PBS, 0.1% Tween™20) and added serially diluted (in PBS, 0.1% BSA, 0.05% Tween™20, 0.02% sodium azide) sera from hyper immunized mice and incubated at RT for 1 hr. After incubation, wells were again washed and added Goat Anti-mouse IgG HRP conjugate antibody at a dilution of 1:5000 & incubated for 1 hr at RT. Later, wells were washed, and developed with OPD (O-phenylene diamine) as a substrate for 15 min. Reaction was stopped using 2N H2SO4. Absorbance was read at 490 nm. Threshold (Mean+3SD) was established by taking the absorbance of negative control (PBS) group, followed by the reactive index (ratio of absorbance at a particular dilution & threshold), so as to determine end point titer. Based on this calculation, highest dilution at which reactive index value[…] was considered as endpoint antibody titer dilution. Antigen specific antibody endpoint titer in the presence & absence of MDP-ET was represented as in FIG. 5a.
# splenocytes = test: Splenocyte proliferation of immunized mice (MTT); format: in vivo; settings: LPS and Con A
# Protocol: Spleens were isolated from immunized mice and were processed to single cell suspension. 96 well flat bottom Micro titer plates were seeded with 1×10^5 cells/well with RPMI1640 media. Cells were treated with OVA. Con A (2 μg/mL) and LPS (10 μg/mL) or medium with a final volume of 200 μl. Plates were incubated at 37° C. with 5% CO2 in an incubator. After 48 h of incubation 20 μl of Triazolyl blue Tetrazolium Bromide (MTT) solution was added to each well, incubated for next 4 h. Untransformed MTT was removed from each well by aspirating the supernatant (180 μL) and replaced with DMSO. The absorbance was read at 570 nm after 15 min.
# Immunostimulating substances act through specific (antigen-dependent) T lymphocytes, B lymphocytes, and dendritic cells and also through non-specific mechanisms of action (antigen-independent) that involves granulocytes, macrophages, and NK cells. Being a secondary lymphoid organ, spleen contains a heterogeneous population of lymphocytes to examine the immunostimulant activity. However, proliferations of immune cells like T and B cells are the benchmark for immune potentiation. Mice were immunized with or without OVA or in combination with MDP and MDP-ET. Type of immune response in all treated groups was measured with LPS and Con-A splenocyte proliferation assays depicted in Figure: 3. […] This is essential for B cell expansion.
# [2] = test system: Total IgG1 and IgG2a antibodies; test: Total IgG1 and IgG2a in sera of OVA-immunized mice (sandwich ELISA); format: in vivo, BALB/c mice
# Protocol: Male BALB/c mice were immunized subcutaneously with OVA 100 μg alone or with OVA 100 μg dissolved in saline containing the MDP or MDP-ET analogues (7.5, 15 or 30 μg) on Days 1 and 15. Sera were collected 2 weeks after the last immunization. Total IgG1 and IgG2a antibodies in the sera were measured by Sandwich ELISA.
# Measurement of total IgG subtypes such as IgG1 and IgG2a are useful to assess type immunity produced. In mice, IgG1 is integrated with Th2-type response, while Th1-type response is integrated with the production of IgG2a, IgG2b, and IgG3 antibodies. Antibody subclass is indispensable for complement fixation and provides protection. IgG2a and IgG2b can fix the complement stronger than IgG1. Vaccine adjuvants showing broad subclass distribution is beneficial against pathogens. […] But, it didn't induce much significant IgG1 response i.e., Th2 type, than MDP+OVA group.
# [3] = test system: IgG isotypes (IgG1, IgG2a & IgG3) raised against HBsAg; test: TH1:TH2 index from HBsAg specific IgG isotypes; format: in vivo, BALB/c mice; settings: HBsAg in the presence of MDP-ET (10 & 50 μg/mouse)
# Excerpt: It is known that IgG subclasses produced after the immunization against given antigen, primarily determines the function of the antibody or indirectly measures the relative contribution of TH1 versus TH2 type cytokine induction. More specifically, production of IgG1 antibodies induces TH2 type cytokines, whereas production of IgG2a & IgG3 antibodies induces TH1 type cytokines. […] In this context, in the present invention, we determined the levels of IgG isotypes (IgG1, IgG2a & IgG3), raised against HBsAg in the presence or absence of MDP-ET (at 10 μg/mouse & 50 μg/mouse) and calculated TH1:TH2 index then calculated as ([IgG2a+IgG3]/2)/(IgG1). Details of assay protocol as described below as in example 3.1.3. According to such calculation, an index value less than 1 stands for a TH2 polarization; an index value greater than 1 stands for a TH1 polarization.
# Analysis of antigen specific IgG antibody subclasses (isotypes namely IgG1 or IgG2a or IgG3) was performed as mentioned in example 3.1.2, except at one step, where goat anti-mouse IgG1 or IgG2a or IgG3 HRP was used at a dilution of 1:5000 (in place of goat anti-mouse IgG) TH1:TH2 index obtained at 10 & 50 μg/mouse of MDP-ET is as shown in FIG. 5c.
# human NOD2 = target: T1, human NOD2 (Homo sapiens, UniProt Q9HC29); test: NOD2 specific reporter assay (SEAP, Quanti blue); format: cell-based; settings: HEK-Blue Human NOD2 reporter cells, 24-72 hrs, read-out: EC50 (half maximal response) (converted)
# T1 construct: host or cells: HEK-Blue Human NOD2 reporter cells (HEK 293)
# T1 sequence (Q9HC29 whole entry): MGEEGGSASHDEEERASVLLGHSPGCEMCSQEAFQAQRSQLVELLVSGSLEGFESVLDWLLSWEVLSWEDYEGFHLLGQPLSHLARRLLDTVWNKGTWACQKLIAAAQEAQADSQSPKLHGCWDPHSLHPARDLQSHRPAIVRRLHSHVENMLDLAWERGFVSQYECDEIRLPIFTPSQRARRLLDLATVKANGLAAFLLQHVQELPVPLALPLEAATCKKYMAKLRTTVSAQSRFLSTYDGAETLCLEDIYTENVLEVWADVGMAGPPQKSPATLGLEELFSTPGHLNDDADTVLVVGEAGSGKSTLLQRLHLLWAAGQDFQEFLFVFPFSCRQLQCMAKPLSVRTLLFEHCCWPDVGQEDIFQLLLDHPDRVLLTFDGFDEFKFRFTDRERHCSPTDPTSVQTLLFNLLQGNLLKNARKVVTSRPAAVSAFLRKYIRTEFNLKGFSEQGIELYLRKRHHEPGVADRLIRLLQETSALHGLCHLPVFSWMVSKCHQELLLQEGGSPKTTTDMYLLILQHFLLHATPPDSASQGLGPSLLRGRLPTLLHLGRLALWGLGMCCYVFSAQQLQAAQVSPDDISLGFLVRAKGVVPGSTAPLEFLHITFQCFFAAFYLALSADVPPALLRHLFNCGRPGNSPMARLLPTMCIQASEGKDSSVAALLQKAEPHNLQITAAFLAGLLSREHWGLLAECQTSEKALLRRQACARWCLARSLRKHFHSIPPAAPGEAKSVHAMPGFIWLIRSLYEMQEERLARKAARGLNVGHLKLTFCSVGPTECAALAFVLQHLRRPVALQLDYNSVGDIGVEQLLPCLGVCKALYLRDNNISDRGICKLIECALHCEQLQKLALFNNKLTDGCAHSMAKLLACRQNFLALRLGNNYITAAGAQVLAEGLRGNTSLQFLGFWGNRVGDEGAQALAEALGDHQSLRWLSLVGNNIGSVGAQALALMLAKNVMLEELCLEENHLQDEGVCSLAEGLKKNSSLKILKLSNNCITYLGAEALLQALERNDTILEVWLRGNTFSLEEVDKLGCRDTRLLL
# Protocol: Muramyl dipeptide molecules have the ability to bind to NOD2 receptors that are present on the surface of the immune cells, so as to stimulate immune response. NOD2 (Nucleotide oligomerization domain) receptor is an intracellular pattern recognition receptor (PRRs) recognizes muramyl dipeptide derivatives and stimulates cascade of signaling pathways to induce immune response. […] These cells were prepared by co-transfection of human NOD2 gene and codon-optimized SEAP (secreted embryonic alkaline phosphatase) reporter gene into HEK 293 cells. Upon stimulation of cells with muramyl dipeptide derivative, NFkB gets activated, which inturn secrets SEAP and it was measured in cell supernatant. Experimental details of this in-vitro assay are given as example 2.1.
# HEK—Blue Human NOD2 reporter cells (5×10^4/well) were plated and cultured overnight in a humidified CO2 incubator at 37° C. Next day, cells were treated with various concentrations of MDP-ET, (0.001 mg/ml to 1 mg/ml) and cultured for 24-72 hrs. Supernatant was collected and treated with Quanti blue detection reagent at 37° C. for 15-30 min. Absorbance was read at 630 nm. […] To generate dose response curve, highest absorbance shown at tested concentration was taken as 100% response and the least absorbance was taken as 0% response. […]
# [4] = test system: rPvRII specific IgG antibody; test: Endpoint titer of rPvRII specific IgG by ELISA after immunization; format: in vivo, mouse
# Wistar rats = test: Maximum Tolerated Dose test; format: in vivo
# Protocol: This particular beneficial property was evidenced by Maximum Tolerated Dose test done using rat as an animal model.
# Maximum Tolerated Dose test: Wistar rats (n=6, 3M & 3F) were administered intramuscularly (i.m) with MDP-ET containing fixed adjuvant dose of 10, 50 and 100 μg/animal/200 μl in an ascending manner. Animals were observed daily for a period of 14 days for clinical signs & mortality. Body weight was measured daily. Food and water consumed by animals were also monitored daily for any abnormalities & food and water intake per animal was also calculated. Body temperature was measured for every 4 hours up to 24 hrs, later once in daily up to 7 days and then followed by alternate day up to day 14. Rats were sacrificed on day 14 and organs/tissues such as site of injection, spleen, thymus, brain, lungs, Heart, liver, Kidney were collected and done macroscopic examination. […] It indicates rats are tolerable even at high dose (100 μg/animal). Blood was collected between 24-36 hrs were tested for CRP levels, after the injection. Higher (600-1000 μg/ml, normal range 200-550 μg/ml in rats) CRP levels were found at higher dose (100 μg/animal).
# However, due to moderate or high levels of IL-6 levels as found in In-vitro pyrogenicity test, it can be concluded that MDP-ET may be pyrogenic at tested high concentration (100 μg/animal), which in turn correlated with high levels of CRP found immediately after giving dose.
# J774.2A cells = test: Cytotoxicity assay (MTT); format: cell-based; settings: 24 hrs, read-out: IC50 (50% cell death or toxicity)
# Protocol: Details of an assay are as explained in example 2.2.
# J774.2A cells (2×10^4/well) were plated and incubated overnight. Next day, cells were treated with various concentrations of MDP-ET (10 fold dilutions with a concentration ranging from 0.005 mg/ml to 0.5 mg/ml & 2 mg/ml) and cultured for 24 hrs. Supernatant was discarded and cells were treated with 100 μl of MTT [3-(4,5-Dimethylthiazol-2-yl)-2,5-Diphenyltetrazolium Bromide] (5 mg/ml) and incubated for 3-4 hrs until formozan crystals were formed. Later, supernatant was discarded and crystals were dissolved with DMSO for 5-10 min. Absorbance was read at 540 nm. FIG. 2 represents cell toxicity effect of MDP-ET. X-axis represents concentration in log scale and Y-axis represents % toxicity.
# [5] = test system: OVA-specific IgG antibodies; test: OVA-specific IgG in sera of immunized mice (indirect ELISA); format: in vivo, BALB/c mice; settings: OVA 100 μg alone, s.c. Days 1 and 15, sera 2 weeks after last immunization
# Protocol: Male BALB/c mice were immunized subcutaneously with OVA 100 μg alone or with OVA 100 μg dissolved in saline containing analogues (7.5, 15 or 30 μg) on Days 1 and 15. Sera were collected 2 weeks after the last immunization. OVA-specific IgG antibodies in the sera were measured by an Indirect ELISA.
molecule,measurement,setting,value
"CCOC(=O)N[C@H]1C(O)O[C@H](CO)[C@@H](O)[C@@H]1O[C@H](C)C(=O)N[C@@H](C)C(=O)N[C@H](CCC(=O)O)C(N)=O (stereo partly drawn) [MDP-ET, (4R)-5-amino-4-((2S)-2-((2R)-2-(((3R,4R,5S,6R)-3-((ethoxycarbonyl)amino)-2,5-dihydroxy-6-(hydroxymethyl)tetrahydro-2H-pyran-4-yl)oxy)propanamido)propanamido)-5-oxopentanoic acid]",increase of HBsAg specific IgG antibody titer versus HBsAg alone,[1]; MDP-ET 10 μg/mouse,4 fold
same,HBsAg specific IgG antibody endpoint titer,[1]; MDP-ET 10 μg/mouse + HBsAg 20 μg,51200 dilution
same,increase of HBsAg specific IgG antibody titer versus HBsAg alone,[1]; MDP-ET 50 μg/mouse,8 fold
same,HBsAg specific IgG antibody endpoint titer,[1]; MDP-ET 50 μg/mouse + HBsAg 20 μg,204800 dilution
same,"increase of humoral response (TH2), dose dependent",[1]; mice vaccinated with HBsAg in the presence of MDP-ET (10 and 50 μg/mouse),4-8 fold
same,Splenocyte proliferation,splenocytes,inducing the LPS mediated splenocyte proliferation
same,Th1:Th2 index from antibody titer of ova specific IgG subclasses,[2]; OVA-immunized mice,1
same,TH1:TH2 index ([IgG2a+IgG3]/2)/(IgG1),[3],10
same,EC50,human NOD2,421 nM
same,increase of rPvRII specific IgG antibody titer versus rPvRII alone,[4]; MDP-ET 10 μg/mouse,4 fold
same,rPvRII specific IgG antibody endpoint titer,[4]; MDP-ET 10 μg/mouse + rPvRII,51200 dilution
same,CRP levels,"Wistar rats; 100 μg/animal, blood 24-36 hrs after injection, normal range 200-550 μg/ml in rats",600 to 1000 µg/mL
same,tolerated dose,"Wistar rats; Wistar rats, i.m., 14 days observation",≥ 100 μg/rat
same,CRP levels,Wistar rats; after 14 days,normal
same,macroscopic examination of organs/tissues,"Wistar rats; day 14, site of injection, spleen, thymus, brain, lungs, heart, liver, kidney",No significant lesions or abnormalities
same,clinical signs,"Wistar rats; even at tested high dose (100 μg/animal), 14 days",no significant clinical signs
same,weight gain,"Wistar rats; high dose (100 μg/animal), compared to untreated animals",weight gain is less
same,mortality,"Wistar rats; i.m. 10, 50 and 100 μg/animal, 14 days",no mortality
same,body temperature,Wistar rats; up to 14 days,no temperature raise
same,IC50,J774.2A cells,410 µg/mL
B1,Log(2) Total IgG1 Antibody Titre,[2]; OVA 100 μg alone,14.39
same,Log(2) Total IgG2a Antibody Titre,[2]; OVA 100 μg alone,11.89
same,Log(2) IgG Antibody Titre,[5],12.64
